{"source": "patent US12697316B2", "about": "“Combination therapy with acetyl-leucine and miglustat” (INTRABIO LTD., priority 2019, dated 2026)", "format_in_all_cases": "in vivo, mouse", "key": {"[1]": {"test_system": "Npc1^−/− mice", "assay": "Cerebellar immunohistochemistry (Purkinje cells, CD68 microglia) in Npc1−/− mice", "settings": "for Purkinje cell survival in any cerebellar lobules / reduction of frequency of CD68 positive activated microglia: compared to Npc1−/− UT; for reduction of frequency of CD68 positive activated microglia: cerebellum", "description": "(§1) ADLL and enantiomers (ADLL: Molekula #73891210, ALL: Sigma Aldrich #441511, ADL: Sigma #A0876) were administered as dry admix in powdered mouse diet (PicoLab Rodent Diet 20/5053, LabDiet) at a dose of 0.1 g/kg/day for in vivo studies. Treatment groups for in vivo study consisted of at least 5 mice per group. In vitro studies were conducted with each compound dissolved in PBS to generate a 50 mM stock solution and diluted to a 1 mM working concentration in media (DMEM High Glucose-Gibco #10566016).\n(§2) Biochemical and immunohistochemical analyses. Mice were saline perfused under terminal anaesthesia. Tissues for biochemical analysis were snap-frozen on ice-cold isopentane. For immunofluorescent staining, tissues were perfused with 4% PFA followed by PBS and kept in 4% PFA for 24h and stored in PBS containing 20% sucrose longer term. Brains were cut parasagitally (20 micron sections) and stored in 30% ethylene glycol, 30% glycerol 0.1 M sodium phosphate buffer (pH 7.4) at −20° C. Biochemical analysis was performed on water-homogenised tissues (50 mg/ml) and protein content was determined using a BCA protein assay (Thermo Fisher #23227) according to the manufacturer's instructions.\nImmunohistochemistry: Free-floating brain sections in glycerol/ethylene were rinsed 3 times with PBS and blocked with 2% goat serum in 0.3% PBS Triton at room temperature. Sections were stained with primary antibodies; rabbit Calbindin (1:2000) and rat CD68 (1:500) in 2% goat serum in 0.3% PBS for 16 hours at 4° C., followed by washing with 0.3% PBS Triton, then 3 times with PBS. Secondary antibody staining (Alexa Fluor 597 Goat anti rabbit Far Red, Alexa Fluor 488 Goat anti rat) was conducted at room temperature for 2 hours. Samples were washed once with 0.3% PBS Triton, 3 times with PBS and manually mounted on slides. Slides left on the bench overnight to dry the sections followed by application of ProLong Gold (Invitrogen, #P36930).\nImage Acquisition and Quantification: Brain sections and CHO cells imaging was performed with a Leica-SP8 confocal microscope in tile imaging mode. Western blot data acquisition was conducted with LiCOR Odyssey Infrared Imaging system model no 9120. Mean fluorescence values, cerebellum diameters and areas, cell quantifications were calculated with Fuji Version 1.0 software."}, "[2]": {"test_system": "Npc1^−/− mice", "assay": "Lipid storage (GSLs, sphingoid bases) in forebrain and cerebellum of Npc1−/− mice", "design": "concentration or dose not given beside the values", "settings": "Npc1−/− mice treated from 3 weeks, 59 days of age", "description": "as §1, §2\nSphingoid Base Measurements: Sphingoid bases (sphingosine and sphinganine) were extracted from 100 uL tissue homogenates in 500 uL of chloroform:methanol (1:2v/v) followed by sonication for 10 minutes at room temperature. Subsequently, 1 M 500-uL sodium chloride, 500 uL chloroform, and 3 M 100 uL sodium hydroxide were added to the samples, and vortexed every five minutes for 15 minutes at room temperature. Homogenates were centrifuged (13,000 g for 10 minutes) and the lower organic phase retained. Sphingoid bases were purified from the samples by pre-equilibrating SPA-NH2 columns with 2×1 mL chloroform followed by sample elution with 3×300 ul acetone. The samples were dried under nitrogen. Lipids were resuspended in 50 uL pre-warmed ethanol (37° C.) and 50 uL OPA labelling solution (1 mg OPA/20 uL Ethanol/1 uL 2-mercaptoethanol; dilution 1:2000 in 3% boric acid pH 10.5) was added. Samples were kept at room temperature in the dark for 20 minutes and vortexed every 10 minutes. Samples were buffered with 100 uL methanol: 5 mM Tris pH 7 (9:1) and centrifuged at 5,000 g for 2 minutes. Supernatants (150 uL) were loaded onto a reverse phase HPLC. Chromatography was carried out using a mobile phase of 85% acetonitrile/15% H2O at a flow rate of 1.0 ml/min. The orthophthaldehyde-labelled derivatives were monitored at an excitation wavelength of 340 nm and an emission wavelength of 450 nm. Quantification of trace peak area was carried out using EZChrom Elite software v3.2.1.\nGlycosphingolipid measurements: Glycosphingolipids were extracted and measured by NP-HPLC according to published methods. Tissue homogenates in chloroform/methanol (C:M) (1:2 v/v) overnight at 4° C. The mixture was centrifuged (3000 rpm/10 min) and 1 mL chloroform and 1 mL PBS were added to the supernatant and centrifuged (3000 rpm/10 min). The lower phase was dried under N2, resuspended in 50 uL C:M 1:3 v/v and combined with the upper phase. Subsequently, GSLs were recovered using C18 Isolute columns (100 mg) (Biotage) pre-equilibrated with 4×1 mL MeOH and 2×1 mL H2O. Samples were washed 3×1 mL H2O and eluted with 1 mL C:M 98:2, 2×1 mL C:M 1:3, 1 mL MeOH. The column eluate was dried under N2, resuspended in 100 uL C:M 2:1, dried again under N2 and resuspended in ceramide glycanase (CGase) buffer (50 mM sodium acetate pH 5.5, 1 mg/mL sodium taurodeoxycholate). 50 mU CGase was added, and samples incubated at 37° C. overnight. Released oligosaccharides were anthranilic acid (2-AA) labelled and purified by mixing with 1 mL Acetonitrile: H2O 97:3 and added to Discovery DPA-6S columns (SUPELCO, # 52625-U) pre-equilibrated with 1 mL acetonitrile, 2×1 mL H2O, and 2×1 mL acetonitrile. Columns were washed with 2×1 mL Acetonitrile: H2O 95:5 v/v, and eluted in 2×0.75 mL H2O. […]"}, "[3]": {"test_system": "Npc1^−/− mice", "assay": "Accelerating Rotarod motor function in Npc1−/− mice", "settings": "Npc1−/− mice treated from 3 weeks, assessed at 8 weeks, vs untreated Npc1−/−", "method": "The mice were housed under non-sterile conditions, with food and water available ad libitum.\nThe weight and activity of each mouse was recorded weekly until reaching the humane endpoint (defined as a loss of 1 g body weight within 24 h). […] Motor function was measured using an accelerating NG Rota Rod for mice (Ugo Basile) starting from 1 rpm to 10 rpm, accelerating every 30 seconds by one rpm."}, "[4]": {"settings": "59 days of age, relative to untreated Npc1−/− littermates"}}, "data": [{"smiles": "CC(=O)N[C@H](CC(C)C)C(=O)O", "note": "[ADL, N-acetyl-D-leucine]", "values": [{"measurement": "Purkinje cell survival in any cerebellar lobules", "setting": "[1]; 59 days of age", "result": "did not significantly improve"}, {"measurement": "long term neuroprotective effects", "setting": "[1]; Npc1−/− mice", "result": "did not mediate any long term, neuroprotective effects"}, {"measurement": "reduction of frequency of CD68 positive activated microglia", "setting": "[1]; 59 days of age", "result": "did not have a significant impact"}, {"measurement": "reduction of sphinganine in cerebellum", "setting": "[2]", "result": 42.3, "unit": "%"}, {"measurement": "reduction of sphinganine levels in forebrain", "setting": "[2]", "result": 18.2, "unit": "%"}, {"measurement": "Rotarod performance", "setting": "[3]", "result": "no significant benefit"}]}, {"smiles": "CC(=O)NC(CC(C)C)C(=O)O", "note": "(racemic) [ADLL, N-acetyl-DL-leucine]", "values": [{"measurement": "more Purkinje cells in lobule III", "setting": "[1]; [4]", "result": 402, "unit": "%"}, {"measurement": "more Purkinje cells in lobules I and II", "setting": "[1]; [4]", "result": 133, "unit": "%"}, {"measurement": "reduction of frequency of CD68 positive activated microglia", "setting": "[1]; 59 days of age", "result": "did not have a significant impact"}, {"measurement": "reduction of GA2 in cerebellum", "setting": "[2]", "result": 21.3, "unit": "%"}, {"measurement": "reduction of sphinganine levels in forebrain", "setting": "[2]", "result": 13.5, "unit": "%"}, {"measurement": "Rotarod performance", "setting": "[3]", "result": "significant improvement"}]}, {"smiles": "CC(=O)N[C@@H](CC(C)C)C(=O)O", "note": "[ALL, N-acetyl-L-leucine]", "values": [{"measurement": "Purkinje cell survival in any cerebellar lobules", "setting": "[1]; 59 days of age", "result": "did not significantly improve"}, {"measurement": "reduction of frequency of CD68 positive activated microglia", "setting": "[1]; 59 days of age", "result": 20, "unit": "%"}, {"measurement": "reduction of GA1 in cerebellum", "setting": "[2]", "result": 23.5, "unit": "%"}, {"measurement": "reduction of GA2 in cerebellum", "setting": "[2]", "result": 23.8, "unit": "%"}, {"measurement": "reduction of GM1a in forebrain", "setting": "[2]", "result": 20.1, "unit": "%"}, {"measurement": "reduction of GM2 in forebrain", "setting": "[2]", "result": 19.6, "unit": "%"}, {"measurement": "Rotarod performance", "setting": "[3]", "result": "significant improvement"}]}]}
